Earlier results, collected in patent US8071602B2, “Piperidine and piperazine derivatives” (M's Science Corporation, priority 2005, dated 2011).

System: rats
Conditions: microinjection

Row | neck dystonia | Compound
1 | induced neck dystonia | Cc1ccccc1NC(=N)Nc1ccccc1C [DTG, 1,3-di-2-tolyl-guanidine]
2 | no effect | COc1ccc(CCN2CCN(CCCc3ccccc3)CC2)cc1OC [SA-4503, 1-[2-(3,4-dimethoxyphenyl)ethyl]-4-(3-phenylpropyl)piperazine]
